From patent US10583119B2, “Compounds, compositions and methods for making the same” (Signum Biosciences, Inc., priority 2008, dated 2020)

How the values were obtained:
[1] = system: serine 129 phosphorylated alpha-synuclein; experiment: Dephosphorylation assay of human alpha-synuclein by PP2A and PP1; assay type: biochemical; settings: Western blot
Procedure: Dephosphorylation Assay of Human a Synuclein by PP2A and PP1. […] PP2A or PP1 (serial dilutions of 200 nM, 100 nM, 50 nM, 25 nM, 12 nM, and O nM as a negative control) were incubated with serine 129 phosphorylated alpha-synuclein in MOPS buffer. The reactions were stopped by adding 5×SDS sample buffer. Levels of phosphorylated-alpha-synuclein were assessed by western blotting using an anti-phospho-Ser 129 antibody. […] Specifically, at 200 nM concentration, PP2A dephosphorylates more than 95% of the serine 129 phosphorylated alpha-synuclein.

[2] = system: alpha-synuclein phosphorylated at Ser129; experiment: Effect of PP2A methylation on alpha-synuclein dephosphorylation; assay type: biochemical, human
Procedure: Concentrated samples of the methylated and unmethylated AC dimer of PP2A were each serially diluted to final concentrations of 200 nM, 100 nM, 50 nM, 25 nM, and 12 nM. A buffer sample (with 0 nM PP2A) was used as the negative control. The dephosphorylation assay and western blotting were performed as described above in Example 31 Western blots were scanned on a Storm Scanner (Molecular Dynamics) and band intensities quantified with Image Quant software. The relative phosphorylation levels were calculated with the following formula: Relative phosphorylation level (%)=Signal of Sample/Signal of Negative Control*100%. Regression curves of relative phosphorylation levels as a function of PP2A concentration were plotted, and the EC50 values for methylated and unmethylated PP2A were estimated using the SigmaPlot program. The EC50 is a measure of phosphatase activity or dephosphorylation activity of PP2A toward phosphorylated alpha-synuclein. Specifically, it is the concentration of the AC dimer required to achieve 50% dephosphorylation of phosphorylated alpha-synuclein. […] Specifically, methylation reduces the EC50 value of PP2A AC dimer from ˜60 nM to ˜20 nM.

Ob/Ob Mice = experiment: Non-fasted glucose levels in ob/ob mice; assay type: in vivo; settings: homozygous obese mice, compound in diet for 14 days
Source text: They are also hypometabolic and hypothermic. The obesity is characterized by an increase in both the number and the size of adipocytes. Although hyperphagia contributes to the obesity, homozygotes gain excess weight and deposit excess fat even when restricted to a diet sufficient for normal weight maintenance in lean mice. Mice heterozygous for the Lep^ob mutation appear like wild-type and are lean.
Forty-eight (48) B6.V-Lep^ob/J mice (00632, The Jackson Laboratory, JAX^6 mice), homozygous for the Lep^ob mutation and thirty six (36) controls B6.V-Lep^ob/J-lean, heterozygous for the Lep^ob mutation were used to study the effect of SIG1012 on non-fasted glucose levels. The mice were ear notched for identification and housed in individually and positively ventilated polycarbonate cages with HEPA filtered air at a density of 3 mice per cage. Bed-o-cob corn cob bedding was used and cages were changed every two weeks. The animal room was lighted entirely with artificial fluorescent lighting, with a controlled 12 h light/dark cycle (7 am to 7 pm light). The normal temperature and relative humidity ranges in the animal rooms were 22±4° C. and 50±15%, respectively. The animal rooms were set to have 15 air exchanges per hour. Filtered tap water, acidified to a pH of 2.8 to 3.2, and LabDiet AIN-76A was provided ad libitum.
Following acclimation, mice were assigned to groups A through G according to their body weight and genotype:
A Lean heterozygotes—B6.V-Lep^ob/J-lean Mice Fed Control Diet (AIN-76A);
B Lean heterozygotes—B6.V-Lep^ob/J-lean Mice Fed “Low” Compound I-63 (AIN-76A with 0.001% Compound I-63);
C Lean heterozygotes—B6.V-Lep^ob/J-lean Mice Fed “Medium” Compound I-63 (AIN-76A with 0.1% Compound I-63);
D Obese homozygotes—B6. V-Lep^ob/J Mice Fed Control Diet (AIN-76A);
E Obese homozygotes—B6N-Lep^ob/J Mice Fed “Low” Compound I-63 (AIN-76A with 0.001% Compound I-63); […]
Mice from Groups A through G were maintained on the respective diet for 14 days and blood glucose levels were measured weekly.

PP2A [3] = target: T1, PP2A (Homo sapiens, UniProt P67775); experiment: Phosphatase activity of PP2A using pNPP as substrate; assay type: biochemical; settings: un-methylated PP2A, non-protein substrate pNPP, absence of ME and MT
T1 construct: made in house
Procedure: PP2A (10-200 nM) and pNPP (5-10 mM, Sigma) were mixed into 96-well plate (Fisher Scientific Inc.) in 50 μL of the buffer required. Reactions were performed at room temperature, and fully stopped by adding equal volume of 0.1 M EDTA. Production of p-nitrophenol […] was quantified by absorbance of reaction mixtures at 405 nm using the VMax® microplate reader (Molecular Devices).

PP2A [4] = target: T1, PP2A; experiment: Phosphatase activity of PP2A using phosphorylase a as substrate; assay type: biochemical; settings: un-methylated PP2A, protein substrate phosphorylase a, absence of ME and MT
Procedure: After the reaction, proteins were precipitated by 50% (NH4)2SO4 (final concentration) twice, and collected by centrifugation. The pellet was re-dissolved and dialyzed in a buffer containing 50 mM Tris-HCl (pH6.9) and ImM DTT for 2×2 L at 4° C. overnight. Phosphorylase a (phospho-phosphorylase b) crystallized during the dialysis. The dialysate was centrifuged 14,000 r.p.m at 4° C. for 30 minutes, the supernatant was removed and purified ^32P-labelled phosphorylase a was re-dissolved in +50% glycerol, and stored at −20° C.
To measure PP2A's phosphatase activity, PP2A (5-20 nM) was incubated with phosphorylase a (5-10 μM) at 37° C. 10% TCA (final concentration) and was added to the reaction to precipitate proteins. Supernatant that contains free ^32P-phosphate group was added into scintillation counting solution (Ecoscint, National Diagnostics), and counted by scintillation counter (LS 6000SE, Beckman).

[5] = target: T2, protein phosphatase specific protein methylesterase (MEase) (Homo sapiens, UniProt Q9Y570); experiment: PP2A demethylation with [3H]-SAM and purified proteins (methylesterase activity); assay type: biochemical; settings: purified methylated PP2A and MEase; read-out: ME (IC50)
T2 construct: made in house
T2 sequence (Q9Y570 1-386): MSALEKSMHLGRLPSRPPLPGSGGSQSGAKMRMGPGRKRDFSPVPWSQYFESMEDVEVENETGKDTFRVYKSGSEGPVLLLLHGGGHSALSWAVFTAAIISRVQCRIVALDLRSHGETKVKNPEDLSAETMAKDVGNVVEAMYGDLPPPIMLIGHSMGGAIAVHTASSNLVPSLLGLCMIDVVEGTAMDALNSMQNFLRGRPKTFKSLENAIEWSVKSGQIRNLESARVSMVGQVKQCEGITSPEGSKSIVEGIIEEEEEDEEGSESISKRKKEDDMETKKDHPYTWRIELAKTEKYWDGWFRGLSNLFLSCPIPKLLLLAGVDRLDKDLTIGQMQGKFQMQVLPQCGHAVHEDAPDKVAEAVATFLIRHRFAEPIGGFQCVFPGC
Procedure: PP2A (methylated and unmethylated) were eluted with 1.6 mL of Buffer A containing 350 mM NaCl. Fractions (0.2 mL each) were collected and the radioactivity in each fraction was measured using the scintillation counter (LS 6000SE, Beckman). Fractions with highest radioactivity were containing purified methylated PP2A were pooled with a total volume of 0.6 mL-0.8 mL. Purified methylated PP2A (50 nM-100 nM) was incubated with MEase (5 nM-20 nM) in 20 μl-50 μl reaction at room temperature for 30 minutes. The reaction was terminated by adding TCA (2 μl-6 μl) to a final concentration of 10%. Released [^3H]-methanol in supernatants was counted with scintillation counter (LS 6000SE, Beckman).

[6] = target: T3, protein phosphatase 2A specific methyltransferase (MTase) (Homo sapiens, UniProt Q9UIC8); experiment: PP2A methylation in 96-well plate format (methyltransferase activity); assay type: biochemical; settings: purified PP2A, MTase and [3H]-SAM; read-out: MT (IC50)
T3 construct: His; made in house
Procedure: Purified PP2A, MTase and [^3H]-SAM, were incubated in reaction buffer at 37° C. At the end of the reaction, mixture was added onto the membranes of 96-well filter plate (Multiscreen™, Millipore). The membranes were then pre-wetted with 70% ethanol (50 μL/well) and then subsequently washed with water (2×200 μL/well). The reaction in each well was terminated and the proteins (5 μL-20 μL) were precipitated by adding 25% ice-cold TCA. The plate was kept on ice for 30 minutes to ensure completion of protein precipitation. Excess of the free SAM was then removed by washing with 5% cold TCA ([…]) and 70% cold ethanol (2×100 μL/well). Membranes were air-dried, radioactivity in each well was counted by TopCount^NXT scintillation counter (Packard) with 25 μL/well of Microsinct™ 20 (PerkinElmer).

phosphorylated Tau = experiment: Phosphorylated tau in vivo at four weeks (pS396 Western blot of brain); parameters: species or system mice; settings: 0.1% in chow, phospho-Serine 396
Procedure: Swiss Webster mice (9-12 weeks old) were fed ad libitum, either standard rodent chow (Control), or rodent chow formulated with 0.1 g Compound I-63 per 100 g chow (0.1% Compound I-63) or 0.1 g Compound I-62 per 100 g chow (0.1% Compound I-62); water was changed weekly. Mice were housed at 23° C., on a 12 hour light and dark cycle, with 6 mice per cage. At 4 weeks, six mice from the Control, 0.1% Compound I-63 and 0.1% Compound I-62 groups were sacrificed by cervical dislocation, brains removed, snap-frozen in liquid nitrogen, and stored at −80° C. Brains were homogenized in 350 pi of buffer containing 20 mM MOPS-Na, pH 7.2, 1 mM EDTA/DTT, 0.5 mg/L of aprotinin, leupeptin and pepstatin, 100 nM okadaic acid, and clarified by centrifugation (14000 rpm, 10 min, 4° C.). Supernatant protein concentrations were measured by the Bradford method, 4 volumes of the supernatant and 1 volume of 5×SDS sample buffer were mixed and boiled for 2 minutes. Boiled homogenate ([…]) were loaded on 12% polyacrylamide gels, and transferred to nitrocellulose membranes. […] Protein bands were detected with the ECL Plus reagent (GE Healthcare) and blots scanned on a Molecular Dynamics Storm Imager. […]

T1 sequence (P67775 whole entry): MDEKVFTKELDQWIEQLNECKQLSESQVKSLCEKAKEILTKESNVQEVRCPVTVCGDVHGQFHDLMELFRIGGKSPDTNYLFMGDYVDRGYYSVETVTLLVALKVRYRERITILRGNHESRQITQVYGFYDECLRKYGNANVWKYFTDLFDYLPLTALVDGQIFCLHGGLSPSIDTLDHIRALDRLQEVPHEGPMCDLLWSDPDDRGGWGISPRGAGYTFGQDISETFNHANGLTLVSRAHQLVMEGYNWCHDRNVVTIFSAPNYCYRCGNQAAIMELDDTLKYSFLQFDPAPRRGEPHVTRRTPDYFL
T1 sequence (P30153 whole entry partner): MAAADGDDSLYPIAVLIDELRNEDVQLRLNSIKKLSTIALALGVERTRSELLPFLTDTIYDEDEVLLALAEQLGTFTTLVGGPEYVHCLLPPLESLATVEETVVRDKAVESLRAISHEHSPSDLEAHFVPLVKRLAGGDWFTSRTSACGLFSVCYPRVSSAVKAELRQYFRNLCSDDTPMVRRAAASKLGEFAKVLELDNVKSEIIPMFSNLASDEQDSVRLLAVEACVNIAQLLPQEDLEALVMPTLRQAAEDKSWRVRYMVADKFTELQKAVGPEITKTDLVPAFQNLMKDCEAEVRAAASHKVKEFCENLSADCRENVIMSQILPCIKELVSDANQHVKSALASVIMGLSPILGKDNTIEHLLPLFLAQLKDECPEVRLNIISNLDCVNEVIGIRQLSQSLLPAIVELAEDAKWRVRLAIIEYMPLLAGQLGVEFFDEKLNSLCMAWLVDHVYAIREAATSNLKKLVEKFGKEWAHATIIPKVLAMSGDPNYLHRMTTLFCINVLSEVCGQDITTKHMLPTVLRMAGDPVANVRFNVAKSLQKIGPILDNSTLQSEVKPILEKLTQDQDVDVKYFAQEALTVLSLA
T3 sequence (Q9UIC8 whole entry): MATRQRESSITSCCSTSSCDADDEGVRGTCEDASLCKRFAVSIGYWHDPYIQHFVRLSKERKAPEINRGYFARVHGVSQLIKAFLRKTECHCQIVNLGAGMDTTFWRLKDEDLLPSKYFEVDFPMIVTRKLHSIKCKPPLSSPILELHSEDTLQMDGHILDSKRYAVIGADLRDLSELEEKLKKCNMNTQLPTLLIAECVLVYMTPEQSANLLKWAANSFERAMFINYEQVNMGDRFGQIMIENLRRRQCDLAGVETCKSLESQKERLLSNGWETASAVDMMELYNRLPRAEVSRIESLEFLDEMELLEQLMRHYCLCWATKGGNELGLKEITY

For “PP2A: Protein phosphatase 2A, AC dimer (unmethylated or methylated), used as the enzyme dephosphorylating alpha-synuclein”, the “dephosphorylation of serine 129 phosphorylated alpha-synuclein” value ([1]; 200 nM phosphatase) was “more than 95%”, the “dephosphorylation of phosphorylated alpha-synuclein (concentration dependence)” value ([1]; 12-200 nM phosphatase) was “concentration dependent manner” and the EC50 ([2]; methylated AC dimer) was about 0.02 µM. For the same compound, the EC50 ([2]; unmethylated AC dimer) was about 0.06 µM.
`CN(CCOc1ccc(CC2SC(=O)NC2=O)cc1)c1ccccn1` (stereo not shown) [Rosiglitizone, reference compound] was tested, and the “reduction in non-fasted blood glucose levels” value (Ob/Ob Mice) was 66%.
`CCCCCCCCCCCCCCCCCCCCCC(=O)NCCc1c[nH]c2ccc(O)cc12` [Compound I-62, N-(2-(5-hydroxy-1H-indol-3-yl)ethyl)docosanamide] showed an IC50 (PP2A [3]) of 10 to 100 µM, an IC50 (PP2A [4]) of over 100 µM and an IC50 [5] of 10 to 100 µM. For the same compound, the IC50 [6] was 10 to 100 µM and the “lowering of phosphorylated tau levels in the brain compared to control” value (phosphorylated Tau) was 40%.
